Where two headings read alike, the source gives them in different places. Where only a bound is given, the exact number is not on record here.

The record followed here is US8063055B2, “Substituted pyridone compounds and methods of use” (Amgen Inc., priority 2007, dated 2011).

The subject of experiment [1] is SCF-stimulated UT-7 cells. As to conditions: Homo sapiens.
Excerpt: SCF and GM-CSF Stimulated UT7 Proliferation/Survival Assay:
The purpose of this assay is to test the general anti-proliferative/cytotoxic effect of small molecule compounds on SCF or GM-CSF-stimulated UT-7 cells. Preventing SCF stimulated proliferation/survival is consistent with an on-mechanism effect whereas inhibition of GM-CSF driven proliferation/survival is indicative of off-target effects. UT-7 is a factor dependent human megakaryoblastic leukemia cell line that can be grown in either IL-3, GM-CSF, EPO or SCF (these cells have been confirmed to carry wild type c-kit receptor). Cells are maintained in growth media (IMDM, 10% HI-FBS, 1×PGS, 1 ng/mL GM-CSF). […] Small molecule compounds are first diluted in 100% DMSO, then diluted 1:4 in RT assay media. […] The treated cells are incubated in a 37° C. humidified incubator with 5% CO2 for 3 days. The amount of ATP is then measured as a surrogate marker for cell viability. […] The amount of SCF or GM-CSF stimulated viable cells in the presence of compound compared with in the presence of vehicle alone (HI control) is calculated using the formula: % control (POC)=(cpd−average LO)/(average HI−average LO)*100. Data (consisting of POC and inhibitor concentration in μM) is fitted to a 4-parameter equation (y=A+((B−A)/(1+((x/C)^D))), where A is the minimum y (POC) value, B is the maximum y (POC), C is the x (cpd concentration) at the point of inflection and D is the slope factor) using a Levenburg-Marquardt non-linear regression algorithm.
Another experiment addresses T1, c-kit kinase enzyme (Homo sapiens, UniProt P10721).
T1 construct: (catalytic domain, N-terminal GST tagged, unphosphorylated)
The experiment is described as follows: C-kit Homogeneous Time Resolved Fluorescent (HTRF) kinase assay. The format is biochemical.

[2] abbreviates: UT7, 72 h, read-out: UT7 Proliferation cell assay data.
The mark [3] stands for this setting: HTRF Fret enzyme assay data, c-kit catalytic domain, biotinylated Her-2 peptide substrate, ATP.
Where [4] appears, read: c-kit catalytic domain, biotinylated Her-2 peptide substrate, ATP, read-out: HTRF Fret enzyme assay data.

T1 sequence (P10721 589-937 limits assumed): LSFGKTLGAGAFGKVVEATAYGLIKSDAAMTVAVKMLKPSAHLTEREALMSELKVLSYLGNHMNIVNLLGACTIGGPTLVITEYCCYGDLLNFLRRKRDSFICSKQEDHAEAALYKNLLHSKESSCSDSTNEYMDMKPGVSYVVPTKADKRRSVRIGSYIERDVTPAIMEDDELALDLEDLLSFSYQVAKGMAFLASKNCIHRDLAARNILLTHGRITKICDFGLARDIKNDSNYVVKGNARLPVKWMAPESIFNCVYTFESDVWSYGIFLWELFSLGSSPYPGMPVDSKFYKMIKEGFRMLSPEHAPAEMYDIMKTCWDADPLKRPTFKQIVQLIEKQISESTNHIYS

With `Cc1ccn(-c2ccc(-n3cccc3)cc2)c(=O)c1-c1ccc2nc(N)ncc2c1` [Example 5, 1-(4-(1H-pyrrol-1-yl)phenyl)-3-(2-aminoquinazolin-6-yl)-4-methylpyridin-2(1H)-one], the IC50 in experiment [1] (setting [2]) is 4.83 nM; in experiment [1] (UT7, read-out: average IC50 value in the SCF stimulated UT7 proliferation and survival assay), at most 1000 nM; against c-kit kinase enzyme (setting [3]), 2.25 nM.
For the molecule `Cc1ccc(-n2ccc(C)c(-c3ccc4nc(N)ncc4c3)c2=O)cc1F` [Example 6, 3-(2-aminoquinazolin-6-yl)-1-(3-fluoro-4-methylphenyl)-4-methylpyridin-2(1H)-one], the IC50 in experiment [1] (setting [2]) was determined as 12.1 nM; on c-kit kinase enzyme (setting [4]), 40.1 nM.
Take `Cc1ccn(-c2ccc(-c3ncco3)cc2)c(=O)c1-c1ccc2nc(N)ncc2c1` [Example 7, 3-(2-aminoquinazolin-6-yl)-4-methyl-1-(4-(oxazol-2-yl)phenyl)pyridin-2(1H)-one]: the IC50 worked out at 15.5 nM in experiment [1] (setting [2]) and 21.6 nM against c-kit kinase enzyme (setting [3]).
On to `Cc1cc(C)cc(-n2ccc(C)c(-c3ccc4nc(N)ncc4c3)c2=O)c1` [Example 8, 3-(2-aminoquinazolin-6-yl)-1-(3,5-dimethylphenyl)-4-methylpyridin-2(1H)-one], for which the IC50 in experiment [1] (setting [2]) stood at 50.1 nM; against c-kit kinase enzyme (setting [3]), 16.1 nM.
As to `Cc1ccn(-c2cccc(C#N)c2)c(=O)c1-c1ccc2nc(N)ncc2c1` [Example 9, 3-(3-(2-aminoquinazolin-6-yl)-4-methyl-2-oxopyridin-1(2H)-yl)benzonitrile], the IC50 was found to be 107 nM in experiment [1] (setting [2]) and 88.8 nM against c-kit kinase enzyme (setting [3]).
As for `Cc1ccn(-c2ccc3[nH]c(C(F)(F)F)nc3c2)c(=O)c1-c1ccc2nc(N)ncc2c1` [Example 10, 3-(2-aminoquinazolin-6-yl)-4-methyl-1-(2-(trifluoromethyl)-1H-benzo[d]imidazol-5-yl)pyridin-2(1H)-one], the results for the IC50 (in experiment [1] (setting [2]); at c-kit kinase enzyme (setting [3])) were 189 nM and 34.8 nM, respectively.
In the same order, the values of `COc1cc(-n2ccc(C)c(-c3ccc4nc(N)ncc4c3)c2=O)cc(C(F)(F)F)c1` [Example 11, 3-(2-aminoquinazolin-6-yl)-1-(3-methoxy-5-(trifluoromethyl)phenyl)-4-methylpyridin-2(1H)-one] are 58.8 nM and 11.1 nM.
In the case of `Cc1ccn(-c2ccc(C(C)(C)C)cc2)c(=O)c1-c1ccc2nc(N)ncc2c1` [Example 12, 3-(2-amino-6-quinazolinyl)-1-(4-(1,1-dimethylethyl)phenyl)-4-methyl-2(1H)-pyridinone], the IC50 in experiment [1] (setting [2]) amounted to 16.5 nM; on c-kit kinase enzyme (setting [3]), 2.06 nM.
`Cc1ccc(-n2ccc(C)c(-c3ccc4nc(N)ncc4c3)c2=O)cc1C` [Example 13, 3-(2-amino-6-quinazolinyl)-1-(3,4-dimethylphenyl)-4-methyl-2(1H)-pyridinone]: the figures for the IC50 (in experiment [1] (setting [2]); at c-kit kinase enzyme (setting [3])) were 5.4 nM and 3.67 nM, respectively.
On to `Cc1ccn(-c2cccc(OC(F)(F)F)c2)c(=O)c1-c1ccc2nc(N)ncc2c1` [Example 14, 3-(2-amino-6-quinazolinyl)-4-methyl-1-(3-((trifluoromethyl)oxy)phenyl)-2(1H)-pyridinone], for which the IC50 in experiment [1] (setting [2]) was 16.2 nM; at c-kit kinase enzyme (setting [3]) it was 4.04 nM.
As for `Cc1ccn(-c2ccc3c(c2)NCC3(C)C)c(=O)c1-c1ccc2nc(N)ncc2c1` [Example 15, 3-(2-amino-6-quinazolinyl)-1-(3,3-dimethyl-2,3-dihydro-1H-indol-6-yl)-4-methyl-2(1H)-pyridinone], the IC50 in experiment [1] (setting [2]) was 19.4 nM; on c-kit kinase enzyme (setting [3]) it was 4.7 nM.
For `Cc1ccn(-c2ccc3ncccc3c2)c(=O)c1-c1ccc2nc(N)ncc2c1` [Example 16, 3-(2-amino-6-quinazolinyl)-4-methyl-1-(6-quinolinyl)-2(1H)-pyridinone] the same measures were 56.8 nM and 5.29 nM.
In the case of `Cc1ccn(-c2ccc3c(c2)CCO3)c(=O)c1-c1ccc2nc(N)ncc2c1` [Example 17, 3-(2-amino-6-quinazolinyl)-1-(2,3-dihydro-1-benzofuran-5-yl)-4-methyl-2(1H)-pyridinone], the IC50 in experiment [1] (setting [2]) was found to be 15.1 nM; against c-kit kinase enzyme (setting [3]), 7.58 nM.
For `Cc1ccn(-c2ccc3[nH]ccc3c2)c(=O)c1-c1ccc2nc(N)ncc2c1` [Example 18, 3-(2-amino-6-quinazolinyl)-4-methyl-1-(1H-indol-5-yl)-2(1H)-pyridinone], the IC50 in experiment [1] (setting [2]) was determined as 28.8 nM; against c-kit kinase enzyme (setting [3]), 8.65 nM.
For `CC(=O)N1CC(C)(C)c2ccc(-n3ccc(C)c(-c4ccc5nc(N)ncc5c4)c3=O)cc21` [Example 19, 1-(1-acetyl-3,3-dimethyl-2,3-dihydro-1H-indol-6-yl)-3-(2-amino-6-quinazolinyl)-4-methyl-2(1H)-pyridinone] the same measures were 226 nM and 9.75 nM.
As for `Cc1ccn(-c2cccc(C(F)(F)F)c2)c(=O)c1-c1ccc2nc(N)ncc2c1` [Example 20, 3-(2-amino-6-quinazolinyl)-4-methyl-1-(3-(trifluoromethyl)phenyl)-2(1H)-pyridinone], the IC50 in experiment [1] (setting [2]) was determined as 27.9 nM.
In the case of `COc1cccc(-n2ccc(C)c(-c3ccc4nc(N)ncc4c3)c2=O)c1` [Example 22, 3-(2-amino-6-quinazolinyl)-4-methyl-1-(3-(methyloxy)phenyl)-2(1H)-pyridinone], the IC50 in experiment [1] (setting [2]) was determined as 27.7 nM; at c-kit kinase enzyme (setting [4]), 65.3 nM.
As for `Cc1ccn(Cc2ccccc2)c(=O)c1-c1ccc2nc(N)ncc2c1` [Example 24, 3-(2-aminoquinazolin-6-yl)-1-benzyl-4-methylpyridin-2(1H)-one], the IC50 was found to be 13 nM in experiment [1] (setting [2]) and 6 nM on c-kit kinase enzyme (setting [3]).
Consider `Cc1ccn(CCC(C)C)c(=O)c1-c1ccc2nc(N)ncc2c1` [Example 25, 3-(2-aminoquinazolin-6-yl)-1-isopentyl-4-methylpyridin-2(1H)-one], for which the IC50 in experiment [1] (setting [2]) came out at 84 nM; on c-kit kinase enzyme (setting [3]), 18 nM.
Take `Cc1ccn(-c2ccc3c(ccn3-c3ccc4[nH]ccc4c3)c2)c(=O)c1-c1ccc2nc(N)ncc2c1` [Example 26, 3-(2-amino-6-quinazolinyl)-1-(1′H-1,5′-biindol-5-yl)-4-methyl-2(1H)-pyridinone]: the figures for the IC50 (in experiment [1] (setting [2]); against c-kit kinase enzyme (setting [3])) were 11 nM and 2 nM, respectively.
Take `Cc1ccn(-c2ccc(C(C)C)cc2)c(=O)c1-c1ccc2nc(N)ncc2c1` [Example 27, 3-(2-aminoquinazolin-6-yl)-1-(4-isopropylphenyl)-4-methylpyridin-2(1H)-one]: the IC50 came out at 5 nM in experiment [1] (setting [2]) and 2 nM on c-kit kinase enzyme (setting [3]).
Regarding `CC(=O)c1ccc(-n2ccc(C)c(-c3ccc4nc(N)ncc4c3)c2=O)cc1` [Example 28, 1-(4-acetylphenyl)-3-(2-aminoquinazolin-6-yl)-4-methylpyridin-2(1H)-one], the IC50 at c-kit kinase enzyme (setting [4]) worked out at 20 nM.
Still for that read-out and setting: to `COc1ccc(-n2ccc(C)c(-c3ccc4nc(N)ncc4c3)c2=O)cc1` [Example 31, 3-(2-aminoquinazolin-6-yl)-1-(4-methoxyphenyl)-4-methylpyridin-2(1H)-one] belongs 17 nM.
In the case of `Cc1ccn(-c2ccc(N3CCN(C(=O)OC(C)(C)C)CC3)cc2)c(=O)c1-c1ccc2nc(N)ncc2c1` [Example 36, tert-butyl 4-(4-(3-(2-aminoquinazolin-6-yl)-4-methyl-2-oxopyridin-1(2H)-yl)phenyl)piperazine-1-carboxylate], the IC50 on c-kit kinase enzyme (setting [3]) was found to be 1370 nM.
At c-kit kinase enzyme (setting [3]), `CCOC(=O)CNc1ccc(-n2ccc(C)c(-c3ccc4nc(N)ncc4c3)c2=O)cc1` [Example 37, ethyl 2-(4-(3-(2-aminoquinazolin-6-yl)-4-methyl-2-oxopyridin-1(2H)-yl)phenylamino)acetate] had an IC50 of 181 nM.
For the molecule `Cc1ccn(-c2ccc(Cl)c(F)c2)c(=O)c1-c1ccc2nc(N)ncc2c1` [Example 44, 3-(2-aminoquinazolin-6-yl)-1-(4-chloro-3-fluorophenyl)-4-methylpyridin-2(1H)-one], on c-kit kinase enzyme (setting [4]), the IC50 stood at 59.7 nM.
Molecule `Cc1ccn(CC2CCCCC2)c(=O)c1-c1ccc2nc(N)ncc2c1` [Example 47, 3-(2-aminoquinazolin-6-yl)-1-(cyclohexylmethyl)-4-methylpyridin-2(1H)-one] returned an IC50 against c-kit kinase enzyme (setting [3]) of 132 nM.
On c-kit kinase enzyme (setting [3]), `Cc1ccn(CC2CCC2)c(=O)c1-c1ccc2nc(N)ncc2c1` [Example 48, 3-(2-aminoquinazolin-6-yl)-1-(cyclobutylmethyl)-4-methylpyridin-2(1H)-one] displayed an IC50 of 1410 nM.
Molecule `Cc1ccn(CC(C)C)c(=O)c1-c1ccc2nc(N)ncc2c1` [Example 49, 3-(2-aminoquinazolin-6-yl)-1-isobutyl-4-methylpyridin-2(1H)-one] yielded an IC50 on c-kit kinase enzyme (setting [3]) of 2250 nM.
In the case of `CCCn1ccc(C)c(-c2ccc3nc(N)ncc3c2)c1=O` [Example 50, 3-(2-aminoquinazolin-6-yl)-4-methyl-1-propylpyridin-2(1H)-one], the IC50 at c-kit kinase enzyme (setting [3]) is 315 nM; against c-kit kinase enzyme (average IC50 value, inhibition of the c-kit kinase enzyme in a human HTRF assay, 1.0 uM or less) it was at most 1000 nM.
Consider `COC(=O)Cn1ccc(C)c(-c2ccc3nc(N)ncc3c2)c1=O` [Example 51, methyl 2-(3-(2-aminoquinazolin-6-yl)-4-methyl-2-oxopyridin-1(2H)-yl)acetate], for which, on c-kit kinase enzyme (setting [3]), the IC50 amounted to 1190 nM.
In the case of `CCCCn1ccc(C)c(-c2ccc3nc(N)ncc3c2)c1=O` [Example 53, 3-(2-aminoquinazolin-6-yl)-1-butyl-4-methylpyridin-2(1H)-one], the IC50 on c-kit kinase enzyme (setting [3]) was determined as 118 nM.
For the molecule `Cc1ccn(CCN(C)C)c(=O)c1-c1ccc2nc(N)ncc2c1` [Example 55, 3-(2-aminoquinazolin-6-yl)-1-(2-(dimethylamino)ethyl)-4-methylpyridin-2(1H)-one], the IC50 against c-kit kinase enzyme (setting [3]) came to 1580 nM.
`COCCn1ccc(C)c(-c2ccc3nc(N)ncc3c2)c1=O` [Example 56, 3-(2-aminoquinazolin-6-yl)-1-(2-methoxyethyl)-4-methylpyridin-2(1H)-one] showed an IC50 on c-kit kinase enzyme (setting [3]) of 2230 nM.
For `Cc1ccn(CCn2cccn2)c(=O)c1-c1ccc2nc(N)ncc2c1` [Example 60, 1-(2-(1H-pyrazol-1-yl)ethyl)-3-(2-aminoquinazolin-6-yl)-4-methylpyridin-2(1H)-one], the IC50 on c-kit kinase enzyme (setting [3]) is 176 nM.
